Laboratory results taken from BindingDB's records for doi:10.1021/jm00012a012 (Wellcome Research Laboratories, 1995).

Test: Activity against adenosine diphosphate (ADP) induced platelet aggregation

| Structure (SMILES) | IC50 [µM] |
| --- | --- |
| CCCCCCOc1c(OC)cc(CCCCc2scnc2C)cc1OC [5-[4-(4-Hexyloxy-3,5-dimethoxy-phenyl)-butyl]-4-methyl-thiazole] | 13.5 |
| CCCCCCOc1c(OC)cc(C(=O)OCc2ccccc2C[N+](C)(C)C)cc1OC [[2-(4-Hexyloxy-3,5-dimethoxy-benzoyloxymethyl)-benzyl]-trimethyl-ammonium; iodide] | 16 |
| CCCCCCCCOc1c(OC)cc(C(=O)OCCCC[N+](C)(C)C)cc1OC [[4-(3,5-Dimethoxy-4-octyloxy-benzoyloxy)-butyl]-trimethyl-ammonium; iodide] | 13.8 |
| CCCCCCOc1ccc(C(=O)OCCCC[N+](C)(C)C)cc1 [[4-(4-Hexyloxy-benzoyloxy)-butyl]-trimethyl-ammonium; iodide] | 22.5 |

Now those with a lower IC50, led by results:

| IC50 [µM] | Structure (SMILES) |
| --- | --- |
| 12 | CCCCCCOc1c(C)cc(C(=O)OCCCC[N+](C)(C)C)cc1C [[4-(4-Hexyloxy-3,5-dimethyl-benzoyloxy)-butyl]-trimethyl-ammonium; iodide] |
| 9.6 | CCCCCCOc1c(Cl)cc(C(=O)OCCCC[N+](C)(C)C)cc1OC [[4-(3-Chloro-4-hexyloxy-5-methoxy-benzoyloxy)-butyl]-trimethyl-ammonium; iodide] |
| 2.9 | CCCCCCCCCCCCCCCCOc1c(OC)cc(C(=O)OCCCC[N+](C)(C)C)cc1OC [[4-(4-Hexadecyloxy-3,5-dimethoxy-benzoyloxy)-butyl]-trimethyl-ammonium; iodide] |
| 2 | CCCCCCCCCCOc1c(OC)cc(C(=O)OCC[N+](C)(C)C)cc1OC [[2-(4-Decyloxy-3,5-dimethoxy-benzoyloxy)-ethyl]-trimethyl-ammonium; iodide] |
